From patent US9744186B2 (priority 2012, dated 2017)

Columns and labels:
[1] = Compound solubility in media; assay type: physicochemical; conditions: DMEM+2% FBS cell culture media, 37 °C, plasma or biological fluid, kinetic from dmso stock; DMEM+2% FBS media
Experimental: (§1) Treating the cells: Media (DMEM+2% FBS) was pre-warmed to 37° C. […] The 96-well plate was removed from the 37° C. incubator, and the media replaced on the plate with the serial dilutions of the test drug. The plate was then returned to 37° C. for 48 h.

HCV luciferase replicon [2] = experiment: HCV luciferase replicon IC50 assay in Huh7 cells; conditions: for IC50: Hepatitis C virus, Huh-7, 48 h, Huh7 cells containing HCV luciferase replicon, cells exposed to drug for 48 h; for Therapeutic Index (TC50/IC50): TC50 in Huh7 / IC50 HCV replicon, 48 h
Experimental: Plating Cells: The Luciferase replicon cell line was passaged when it was at about 70% confluency. The cells were counted by using a hemocytometer and diluted to 1×10^5 cells per mL in DMEM+10% FBS+[…] G415. The cells were plated as follows: 100 μL of the cells (10,000 cells) per well in a white-walled 96-well plate. The cells were allowed to attach for 24 hours at 37° C.
as §1
Luciferase Assay: The Bright-Glo reagent (Promega Corporation, Madison, Wis.) was removed from the −80° C. freezer and allowed to thaw it at 4° C. in the dark. The amount of reagent necessary for the experiment (3.65 mL) was removed, and the remaining reagent was returned to −80° C. The Glo Lysis Buffer and the Bright Glow reagent were allowed to warm to room temperature for 30 min in the dark. The 96 well plate was removed from the incubator and the cells to allowed cool to room temperature for 30 min. The media was removed from the cells, and each well was gently washed in 100 μL of phosphate buffered saline (PBS). The PBS was removed and then 50 μL of the Glo Lysis Buffer was added to each well, followed by gently rocking the plate for 15 min at room temperature in the dark to ensure complete cell lysis. To each well of the 96-well plate was added 50 μL of the Bright Glo reagent and it was mixed well with the lysate. The plate was inserted into a GloMax 96 plate reader and allowed to sit for 5 min in the dark for the luciferase reaction to reach a steady state. The luminescence on the plate was read by using the pre-installed “Bright Glo” Promega program (Synergy Software) and the data were collected and saved. The data were fit to a 4 parameter logistic curve using Kaleidagraph using the following equation: 100/(1+(x/m3)^m4).
The data in Table 1 were determined for cells exposed to drug for 48 h. The IC50 is the concentration of each compound necessary to inhibit the replication of the HCV luciferase replicon to 50%.
That is, the cells were exposed to drug for 2 h at 37° C., followed by 46 h at 37° C. or incubated in the presence of drug for 48 h at 37° C.

in vitro = experiment: in vitro
Experimental: (§2) Plating Cells: The Huh7 cell line was passaged when it was at about 70% confluency. The cells were counted using a hemocytometer, followed by dilution of the cells to 0.5×10^5 cells per mL in DMEM+10% FBS. The cells were plated at 100 μL (5,000 cells) per well in a clear 96-well plate. The cells were allowed to attach for 24 hours at 37° C.
(§3) Treating the cells: The media (DMEM media without phenol red+2% FBS media) was pre-warmed to 37° C. […] This provided a final DMSO concentration of 0.5%. The 100 mM stock of 3,5-dichlorobenzoic acid was diluted in DMEM without phenol red+2% FBS to a concentration of 0.5 mM. The working 0.5 mM diluted test drugs were serially diluted in DMEM without phenol red+2% FBS+0.5% DMSO in order to maintain a constant concentration of DMSO in each condition. The 96-well plate was removed from the 37° C. incubator, and the media on the plate was replaced with media containing diluted test drug.
(§4) MTS Assay: The reagents from CellTiter 96 kit (Promega Corporation, Madison, Wis.) were thawed at room temperature in the dark for 1 h. The 96-well plate was removed from the 37° C. incubator at 48 h after drug treatment. 20 μL of the combined MTS/PMS reagent to each well of the plate, mixed, and the plate returned to 37° C. The absorbance of each well at 490 nm and 650 nm was determined using the Flexstation 3 microplate reader in endpoint mode every hour for 3 h. The solutions in the wells were mixed prior to each reading. The data were fit to the Emax model: y=(Emax*x)/(TC50+x), where Emax is the maximum inhibition and TC50 is the inhibitory dose 50%. Alternatively, the data can be fit to the Emax sigmoidal model: y=(Emax*x^slope)/(TC50^slope+x^slope), where slope is the Hill Slope.

[3] = TC50 MTS assay with human cancer cell lines: HEK293; assay type: cell-based; conditions: HEK293 cells, 96 h drug treatment
Experimental: (§5) Plating Cells: The Huh7, HEPG2, HEK293, MCF-7, PK9, RPK9, or BxPC3 cells were passaged when they were about 70% confluent. The cells were counted using a hemocytometer, and then diluted cells to 0.5×10^5 cells per mL in DMEM+10% FBS. 100 µL of the cells (5,000 cells) were plated per well in a clear 96-well plate. The cells were allowed to attach for 24 hours at 37° C.
(§6) Treating the cells: Pre-warm the DMEM media without phenol red+2% FBS media to 37° C. […] This will bring the final DMSO concentration to 0.5%. Use these 0.5 mM dilutions to further serially the drugs in DMEM without phenol red+2% FBS+0.5% DMSO. This will keep the concentration of DMSO in each condition identical. Remove the 96-well plate from the 37° C. incubator. Replace the media on the plate with the dilutions of the drugs. Stagger these treatments by 1 h and write the treatment time on each set of plates. Return to 37° C. for 48 h or 96 h as indicated.
as §4, with “Fit Data” for “The data were fit”, “Alternatively, fit” for “Alternatively,”, “data” for “data can be fit”
(§7) Each TC50 was the average value of three measurements as described herein. […] The RPK9 cells are deficient in deoxycytidine kinase (“dCK”) activity, an enzyme required for the initial phosphorylation of dFdC to dFdCMP (see FIG. 2).

[4] = TC50 MTS assay with human cancer cell lines: MCF-7; assay type: cell-based; conditions: MCF-7 cells, 96 h drug treatment
Experimental: as §5, §6
as §4, with “Fit Data” for “The data were fit”, “Alternatively, fit” for “Alternatively,”, “data” for “data can be fit”
as §7

HCV luciferase replicon [5] = experiment: Reversal of anti-HCV activity by exogenous nucleosides; assay type: cell-based, hepatitis C virus (HCV); conditions: 48 h
Experimental: After 48 hours, the cells were lysed, and the total luciferase activity was determined. […] Where indicated, either 50 μM cytidine (C) or 50 μM 2′-deoxycitidine (dC) was also included.
The cells were plated, incubated with drug, and luciferase activity assayed essentially as described herein above. The incubation with drug was for 48 h.

[6] = TC50 MTS assay with human cancer cell lines: HEPG2; assay type: cell-based; conditions: HEPG2 cells, 96 h drug treatment
Experimental: as §5, §6
as §4, with “Fit Data” for “The data were fit”, “Alternatively, fit” for “Alternatively,”, “data” for “data can be fit”
as §7

Huh7 cells [7] = experiment: in vitro; conditions: read-out: TC50; control Huh7 cells; 48 h drug exposure; MTS
Experimental: as §2, §3, §4

Huh7 cells [8] = experiment: TC50 MTS assay with human cancer cell lines: Huh7; assay type: cell-based; conditions: 96 h drug treatment
Experimental: as §5, §6
as §4, with “Fit Data” for “The data were fit”, “Alternatively, fit” for “Alternatively,”, “data” for “data can be fit”
as §7

hENT1 = experiment: TC50 MTS assay with human cancer cell lines: Huh7; assay type: cell-based; conditions: human, Huh7 cells; 48 h drug treatment; 10 μM S-(4-nitrobenzyl)-6-thioinosine (hENT1 inhibitor) added; read-out: TC50 (μM) in Huh7 cells NBTI
Experimental: as §5, §6
as §4, with “Fit Data” for “The data were fit”, “Alternatively, fit” for “Alternatively,”, “data” for “data can be fit”
as §7

[9] = TC50 MTS assay with human cancer cell lines: Huh7; assay type: cell-based; conditions: human, Huh7 cells; 48 h drug treatment; no hENT1 inhibitor; read-out: TC50 (μM) in Huh7 cells Control
Experimental: as §5, §6
as §4, with “Fit Data” for “The data were fit”, “Alternatively, fit” for “Alternatively,”, “data” for “data can be fit”
as §7

Row | Compound | solubility [1] | IC50 (HCV luciferase replicon [2]) | Therapeutic Index (TC50/IC50) (HCV luciferase replicon [2]) | CC50 at 48 h (in vitro) | further results
1 | O=C(Nc1ccn(C2O[C@H](CO)[C@@H](O)C2(F)F)c(=O)n1)c1ccc(Cl)cc1Cl (stereo partly drawn) [VV-006] | < 500 µM | 0.0775 ± 0.007 µM | >1290 | > 100 µM | 
2 | COc1cc(OC)cc(C(=O)Nc2ccn([C@@H]3O[C@H](CO)[C@@H](O)C3(F)F)c(=O)n2)c1 [Compound G3DB, N^4-(3,5-Dimethoxybenzoyl)gemcitabine] | > 500 µM | 0.0734 ± 0.012 µM | 13100 |  | CC50 at 96 h [3]: 4.02 ± 0.79 µM; CC50 at 96 h [4]: 1.57 ± 0.338 µM; reversal of the inhibition of the HCV luciferase replicon by deoxycytidine and cytidine (HCV luciferase replicon [5]; drug 1000, 100 or 25 nM, 50 μM cytidine or 2′-deoxycitidine): reversal; CC50 at 96 h [6]: 3.86 ± 1.42 µM; CC50 (Huh7 cells [7]): 962 ± 110 µM; CC50 (Huh7 cells [8]): 18.5 ± 5.32 µM
3 | O=C(O)c1cc(Cl)cc(Cl)c1 [3,5-dichlorobenzoic acid, reference compound] |  |  |  |  | effect on the HCV luciferase replicon (HCV luciferase replicon [5]; up to 500 μM): little effect
4 | Cc1ccc(C(=O)Nc2ccn(C3O[C@H](CO)[C@@H](O)C3(F)F)c(=O)n2)cc1 (stereo partly drawn) [VV-036] |  | 0.0431 ± 0.0044 µM | 7650 |  | CC50 at 48 h (hENT1): 240 ± 40 µM; CC50 at 48 h [9]: 329 ± 57 µM
5 | NC(=O)c1ncn([C@@H]2O[C@H](CO)[C@@H](O)[C@H]2O)n1 [ribavirin, reference compound] | > 500 µM | 51.6 ± 2.08 µM | 10.2 | 527 ± 68.2 µM | 
6 | COc1ccc(C(=O)Nc2ccn(C3O[C@H](CO)[C@@H](O)C3(F)F)c(=O)n2)c(OC)c1OC (stereo partly drawn) [VV-022] | > 500 µM | 0.0346 ± 0.0035 µM | 8670 | 300 ± 39 µM | 
7 | COc1ccc(C(=O)Nc2ccn(C3O[C@H](CO)[C@@H](O)C3(F)F)c(=O)n2)cc1 (stereo partly drawn) [VV-013] | > 500 µM | 0.06 ± 0.0082 µM | 9530 | 572 ± 73 µM | 
8 | COc1cccc(OC)c1C(=O)Nc1ccn([C@@H]2O[C@H](CO)[C@@H](O)C2(F)F)c(=O)n1 [Compound G2DB, N^4-(2,6-Dimethoxybenzoyl)gemcitabine] |  | 0.451 ± 0.037 µM | 10155 |  | CC50 (Huh7 cells [7]): 4580 ± 1100 µM
9 | COc1c(Cl)cc(C(=O)Nc2ccn(C3O[C@H](CO)[C@@H](O)C3(F)F)c(=O)n2)cc1Cl (stereo partly drawn) [VV-012] | > 500 µM | 0.0193 ± 0.0016 µM | >5180 | > 100 µM | 
10 | CCc1ccc(C(=O)Nc2ccn(C3O[C@H](CO)[C@@H](O)C3(F)F)c(=O)n2)cc1 (stereo partly drawn) [VV-038] |  | 0.0584 ± 0.0099 µM | 8430 |  | CC50 at 48 h (hENT1): 360 ± 80 µM; CC50 at 48 h [9]: 492 ± 58 µM
11 | O=C(Nc1ccn(C2O[C@H](CO)[C@@H](O)C2(F)F)c(=O)n1)c1ccc(Cl)c(Cl)c1 (stereo partly drawn) [VV-007] | > 500 µM | 0.0174 ± 0.0018 µM | >5750 | > 100 µM | 
12 | O=C(Nc1ccn(C2O[C@H](CO)[C@@H](O)C2(F)F)c(=O)n1)c1ccc(Cl)cc1 (stereo partly drawn) [VV-033H] |  | 0.0376 ± 0.0054 µM | 3670 | 138 ± 28 µM | 
